The source of these data is patent US20240401154A1, “SYNTHESIS AND PREPARATION OF ULTRA-LOW VISCOSITY AND HIGH MAGNETIC SUSCEPTIBILITY MAGNETIC IONIC LIQUIDS” (priority 2023, published 2024).

Marks after values point to notes of the source that are not given here.

Assay type in all cases: physicochemical
A short description of data set [1]: Viscosity, Brookfield DVI cone and plate viscometer. The conditions noted are these: 21.7° C.; neat MIL dried 48 hours under vacuum. The protocol:
A Brookfield DVI cone and plate viscometer equipped with a CPA-51Z cone spindle was employed to obtain viscosity measurements at […] using approximately 0.5 g of each MIL after extensive drying for 48 hours under vacuum. Viscosity measurements were conducted at 21.7° C. for 15 lanthanide and transition metal MILs examined in this study.
Viscosity measurements were conducted at 21.7° C. for 15 lanthanide and transition metal MILs examined in this study.

Data set [2] is described as follows: Effective magnetic moment from magnetic susceptibility balance (MSB). To be noted: per formula unit. The protocol:
Magnetic properties were analyzed using a magnetic susceptibility balance (MSB, Sherwood Scientific, Cambridge, UK) and a Quantum Design Superconducting Quantum Interference Device (SQUID) magnetometer (MPMS XL-7). The magnetic properties of transition metal MILs were further studied using a SQUID magnetometer to confirm their paramagnetic nature as well as if any magnetic transition occurs in the samples.
Magnetic susceptibility (XM) was calculated through Equation (1).
Effective magnetic moment (μeff) was calculated through Equation (2). In Equation (2), T represents the temperature at which the magnetic susceptibility measurements were conducted.
15 MILs incorporating rare-earth and transition metals were examined using a magnetic susceptibility balance (MSB).

Data set [3] is described as follows: Solubility of MILs in organic solvents and water. From the text:
The solubility of lanthanide and transition metal MILs was investigated in popular traditional organic solvents. […]
The solubility of lanthanide and transition metal MILs was investigated in popular traditional organic solvents.

Data set [4] in a line: Thermal stability, MIL as GC stationary phase with FID. The conditions noted are these: exponential increase in response beyond 2,000 pA. The procedure:
(§1) The thermal stability of MILs was measured from 40 to 350° C. at a ramp rate of 5° C. min^−1 by performing thermogravimetric analysis (TGA) using a NETZSCH STA 449 F1 Jupiter thermal analyzer (Selb, Germany). To further investigate the thermal stability of MILs using a more sensitive technique, the solvents were employed as a gas chromatographic (GC) stationary phase and subjected to an oven temperature program from 40 to 200° C. at a ramp rate of 1° C. min^−1 and decomposition/degradation products detected using an ultra-sensitive flame ionization detector (FID), with all measurements being performed on an Agilent Technologies 7890B gas chromatograph (Santa Clara, CA, USA).
To further investigate the thermal stability of MILs using a more sensitive technique, the solvents were employed as a gas chromatographic (GC) stationary phase and subjected to an oven temperature program from 40 to 200° C. at a ramp rate of 1° C. min^−1 and decomposition/degradation products detected using an ultra-sensitive flame ionization detector (FID).

Data set [5] in a line: Thermal stability by thermogravimetric analysis (TGA). The conditions noted are these: TGA at 10% weight loss. The procedure:
as §1
Volitization/degradation of MILs as a function of temperature were measured using thermogravimetric analysis. The thermal stability of magnetic ionic liquids was measured from 40 to 350° C. at a ramp rate of 5° C. min^−1 by performing thermogravimetric analysis (TGA) using a NETZSCH STA 449 F1 Jupiter thermal analyzer (Selb, Germany).
To investigate the ability of DGE-based MILs to withstand elevated temperatures without undergoing degradation/decomposition, their thermal stabilities were investigated using thermogravimetric analysis (TGA). FIG. 13 through FIG. 27 display thermograms for MILs 1 to 15. The thermogram results are summarized in greater detail in the following paragraphs.

The mark [6] stands for this setting: acetone, chloroform, dichloromethane, acetonitrile, methanol, ethanol, diethyl ether, ethyl acetate, isopropanol at 20% (w/v).
[7] abbreviates: hexane, heptane, benzene, toluene at 10% (w/v).
[8] abbreviates: hexane, heptane, benzene, toluene at 20% (w/v).
The mark [9] stands for this setting: twelve organic solvents (without acetonitrile) at 50% (w/v).

On to `CCCCCCCCOC(=O)c1ccc(C(=O)OCCCCCCCC)o1.CCCCCCCCOC(=O)c1ccc(C(=O)OCCCCCCCC)o1.CCCCCCCCOC(=O)c1ccc(C(=O)OCCCCCCCC)o1.CCCCCCCCOC(=O)c1ccc(C(=O)OCCCCCCCC)o1.CCCCCCCCOC(=O)c1ccc(C(=O)OCCCCCCCC)o1.CCCCCCCCOC(=O)c1ccc(C(=O)OCCCCCCCC)o1.O=C(C=C([O-])C(F)(F)F)C(F)(F)F.O=C(C=C([O-])C(F)(F)F)C(F)(F)F.O=C(C=C([O-])C(F)(F)F)C(F)(F)F.O=C(C=C([O-])C(F)(F)F)C(F)(F)F.O=C(C=C([O-])C(F)(F)F)C(F)(F)F.O=C(C=C([O-])C(F)(F)F)C(F)(F)F.[Co+2].[Co+2].[Co+2]` [compound 10], for which the “Viscosity (cP)” value in data set [1] is 354.7^b cP. In addition, in data set [2], the “μeff, effective magnetic moment” value is listed as 8.27 μB. Besides, the Solubility entry in data set [3] (setting [6]) was “S^b (soluble in acetone, chloroform, dichloromethane, acetonitrile, methanol, ethanol, diethyl ether, ethyl acetate, and isopropanol at 20% (w/v).)”; in data set [3] (setting [7]), “S^a (soluble in hexane, heptane, benzene, and toluene at 10% (w/v).)”; in data set [3] (setting [8]) it was “S^c (soluble in hexane, heptane, benzene, and toluene at 20% (w/v).)”; in data set [3] (setting [9]) it was “S^d (soluble in acetone, chloroform, dichloromethane, methanol, ethanol, diethyl ether, ethyl acetate, isopropanol hexane, heptane, benzene, and toluene at 50% (w/v).)”; in data set [3] (water at 0.01% (w/v)) it was “S^f (insoluble in water at 0.01% (w/v).)”. Further, the “Onset of MIL volatilization (° C.)^1” value in data set [4] turned out to be 147 °C. Also, the “Onset of MIL volatilization (° C.)^2” value in data set [5] stood at 163.0 °C.
For `CCCCCCCCOC(=O)c1ccc(C(=O)OCCCCCCCC)o1.CCCCCCCCOC(=O)c1ccc(C(=O)OCCCCCCCC)o1.CCCCCCCCOC(=O)c1ccc(C(=O)OCCCCCCCC)o1.CCCCCCCCOC(=O)c1ccc(C(=O)OCCCCCCCC)o1.CCCCCCCCOC(=O)c1ccc(C(=O)OCCCCCCCC)o1.CCCCCCCCOC(=O)c1ccc(C(=O)OCCCCCCCC)o1.O=C(C=C([O-])C(F)(F)F)C(F)(F)F.O=C(C=C([O-])C(F)(F)F)C(F)(F)F.O=C(C=C([O-])C(F)(F)F)C(F)(F)F.O=C(C=C([O-])C(F)(F)F)C(F)(F)F.O=C(C=C([O-])C(F)(F)F)C(F)(F)F.O=C(C=C([O-])C(F)(F)F)C(F)(F)F.[Ni+2].[Ni+2].[Ni+2]` [compound 11], the “Viscosity (cP)” value in data set [1] is 453.5^b cP. In addition, the “μeff, effective magnetic moment” value in data set [2] is 5.51 μB. Moreover, the Solubility result in data set [3] (setting [6]) was “S^b (soluble in acetone, chloroform, dichloromethane, acetonitrile, methanol, ethanol, diethyl ether, ethyl acetate, and isopropanol at 20% (w/v).)”; in data set [3] (setting [7]) it was “S^a (soluble in hexane, heptane, benzene, and toluene at 10% (w/v).)”; in data set [3] (setting [8]), “S^c (soluble in hexane, heptane, benzene, and toluene at 20% (w/v).)”; in data set [3] (setting [9]) it was “S^d (soluble in acetone, chloroform, dichloromethane, methanol, ethanol, diethyl ether, ethyl acetate, isopropanol hexane, heptane, benzene, and toluene at 50% (w/v).)”; in data set [3] (water at 0.01% (w/v)), “S^f (insoluble in water at 0.01% (w/v).)”. The “Onset of MIL volatilization (° C.)^1” value in data set [4] was 142 °C. Besides, the “Onset of MIL volatilization (° C.)^2” value in data set [5] was 160.6 °C.
With `CCCCCCCCOC(=O)c1ccc(C(=O)OCCCCCCCC)o1.CCCCCCCCOC(=O)c1ccc(C(=O)OCCCCCCCC)o1.CCCCCCCCOC(=O)c1ccc(C(=O)OCCCCCCCC)o1.CCCCCCCCOC(=O)c1ccc(C(=O)OCCCCCCCC)o1.CCCCCCCCOC(=O)c1ccc(C(=O)OCCCCCCCC)o1.CCCCCCCCOC(=O)c1ccc(C(=O)OCCCCCCCC)o1.O=C(C=C([O-])C(F)(F)F)C(F)(F)F.O=C(C=C([O-])C(F)(F)F)C(F)(F)F.O=C(C=C([O-])C(F)(F)F)C(F)(F)F.O=C(C=C([O-])C(F)(F)F)C(F)(F)F.O=C(C=C([O-])C(F)(F)F)C(F)(F)F.O=C(C=C([O-])C(F)(F)F)C(F)(F)F.[Mn+2].[Mn+2].[Mn+2]` [compound 12], the “Viscosity (cP)” value in data set [1] is 291.8^b cP. Also, in data set [2], the “μeff, effective magnetic moment” value turned out to be 10.04 μB. Moreover, the Solubility result in data set [3] (setting [6]) is “S^b (soluble in acetone, chloroform, dichloromethane, acetonitrile, methanol, ethanol, diethyl ether, ethyl acetate, and isopropanol at 20% (w/v).)”; in data set [3] (setting [7]), “S^a (soluble in hexane, heptane, benzene, and toluene at 10% (w/v).)”; in data set [3] (setting [8]) it was “S^c (soluble in hexane, heptane, benzene, and toluene at 20% (w/v).)”; in data set [3] (setting [9]) it was “S^d (soluble in acetone, chloroform, dichloromethane, methanol, ethanol, diethyl ether, ethyl acetate, isopropanol hexane, heptane, benzene, and toluene at 50% (w/v).)”; in data set [3] (water at 0.01% (w/v)), “S^f (insoluble in water at 0.01% (w/v).)”. Moreover, the “Onset of MIL volatilization (° C.)^1” value in data set [4] is 144 °C. Moreover, the “Onset of MIL volatilization (° C.)^2” value in data set [5] was 160.4 °C.
Turning to `CCCCCCCCOC(=O)COCC(=O)OCCCCCCCC.CCCCCCCCOC(=O)COCC(=O)OCCCCCCCC.CCCCCCCCOC(=O)COCC(=O)OCCCCCCCC.CCCCCCCCOC(=O)COCC(=O)OCCCCCCCC.CCCCCCCCOC(=O)COCC(=O)OCCCCCCCC.CCCCCCCCOC(=O)COCC(=O)OCCCCCCCC.O=C(C=C([O-])C(F)(F)F)C(F)(F)F.O=C(C=C([O-])C(F)(F)F)C(F)(F)F.O=C(C=C([O-])C(F)(F)F)C(F)(F)F.O=C(C=C([O-])C(F)(F)F)C(F)(F)F.O=C(C=C([O-])C(F)(F)F)C(F)(F)F.O=C(C=C([O-])C(F)(F)F)C(F)(F)F.O=C(C=C([O-])C(F)(F)F)C(F)(F)F.O=C(C=C([O-])C(F)(F)F)C(F)(F)F.[Co+2].[Dy+3].[Dy+3]` [compound 13], the “Viscosity (cP)” value in data set [1] is on record as 137.2 cP. The “μeff, effective magnetic moment” value in data set [2] was 15.38 μB. Moreover, the Solubility entry in data set [3] (setting [6]) is “S^b (soluble in acetone, chloroform, dichloromethane, acetonitrile, methanol, ethanol, diethyl ether, ethyl acetate, and isopropanol at 20% (w/v).)”; in data set [3] (setting [7]), “S^a (soluble in hexane, heptane, benzene, and toluene at 10% (w/v).)”; in data set [3] (setting [8]), “S^c (soluble in hexane, heptane, benzene, and toluene at 20% (w/v).)”; in data set [3] (setting [9]), “S^d (soluble in acetone, chloroform, dichloromethane, methanol, ethanol, diethyl ether, ethyl acetate, isopropanol hexane, heptane, benzene, and toluene at 50% (w/v).)”; in data set [3] (water at 0.01% (w/v)), “S^f (insoluble in water at 0.01% (w/v).)”. The “Onset of MIL volatilization (° C.)^1” value in data set [4] stood at 131 °C. The “Onset of MIL volatilization (° C.)^2” value in data set [5] was 182.3 °C.
On to `CCCCCCCCOC(=O)COCC(=O)OCCCCCCCC.CCCCCCCCOC(=O)COCC(=O)OCCCCCCCC.CCCCCCCCOC(=O)COCC(=O)OCCCCCCCC.CCCCCCCCOC(=O)COCC(=O)OCCCCCCCC.CCCCCCCCOC(=O)COCC(=O)OCCCCCCCC.CCCCCCCCOC(=O)COCC(=O)OCCCCCCCC.O=C(C=C([O-])C(F)(F)F)C(F)(F)F.O=C(C=C([O-])C(F)(F)F)C(F)(F)F.O=C(C=C([O-])C(F)(F)F)C(F)(F)F.O=C(C=C([O-])C(F)(F)F)C(F)(F)F.O=C(C=C([O-])C(F)(F)F)C(F)(F)F.O=C(C=C([O-])C(F)(F)F)C(F)(F)F.O=C(C=C([O-])C(F)(F)F)C(F)(F)F.O=C(C=C([O-])C(F)(F)F)C(F)(F)F.[Co+2].[Gd+3].[Gd+3]` [compound 14], for which the “Viscosity (cP)” value in data set [1] stood at 149.1 cP. In data set [2], the “μeff, effective magnetic moment” value is reported as 12.43 μB. Moreover, the Solubility result in data set [3] (setting [6]) was “S^b (soluble in acetone, chloroform, dichloromethane, acetonitrile, methanol, ethanol, diethyl ether, ethyl acetate, and isopropanol at 20% (w/v).)”; in data set [3] (setting [7]), “S^a (soluble in hexane, heptane, benzene, and toluene at 10% (w/v).)”; in data set [3] (setting [8]) it was “S^c (soluble in hexane, heptane, benzene, and toluene at 20% (w/v).)”; in data set [3] (setting [9]) it was “S^d (soluble in acetone, chloroform, dichloromethane, methanol, ethanol, diethyl ether, ethyl acetate, isopropanol hexane, heptane, benzene, and toluene at 50% (w/v).)”; in data set [3] (water at 0.01% (w/v)), “S^f (insoluble in water at 0.01% (w/v).)”. In data set [4], the “Onset of MIL volatilization (° C.)^1” value turned out to be 126 °C. The “Onset of MIL volatilization (° C.)^2” value in data set [5] was 172.9 °C.
